# From US5756480A, “Treatment of hyperandrogenic conditions” (Merck & Co., Inc., priority 1996, dated 1998)
# Entries after “also recorded” stand apart in the source; their conditions may differ. Like-named read-outs stand apart in the source and are kept apart here.
# Key:
# [1] = test system: human prostate (type 2) 5α-reductase; details: result in words, cited from earlier work
# [2] = test system: human prostate (type 2) isozyme; details: cited from earlier work
# [3] = test system: human skin (type 1) isozyme; details: cited from earlier work
# [4] = test system: dihydrotestosterone levels; details: circulating finasteride concentrations comparable to Ki = 26 nM; result in words; cited from earlier work
# type 2 5α-reductase = target: T1, type 2 5α-reductase (Homo sapiens, UniProt P31213); assay: Progress curves of DHT formation, slow-binding inhibition of baculovirus-expressed type 2 5α-reductase; type: biochemical
# T1 construct: made in house
# T1 sequence (P31213 1-254): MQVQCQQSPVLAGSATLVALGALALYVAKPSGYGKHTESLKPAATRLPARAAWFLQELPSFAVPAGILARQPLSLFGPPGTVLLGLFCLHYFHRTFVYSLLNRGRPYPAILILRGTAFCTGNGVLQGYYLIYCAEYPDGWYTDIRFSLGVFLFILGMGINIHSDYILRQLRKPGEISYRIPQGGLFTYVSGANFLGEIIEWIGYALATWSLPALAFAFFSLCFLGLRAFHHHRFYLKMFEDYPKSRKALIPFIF
# Experimental: Ethanol is included at 1% final concentration as the vehicle for introduction of inhibitors. The rate of production of [^3 H]dihydrotestosterone is approximately constant for up to 2 hours or 10% consumption of substrate. A unit of enzyme activity was defined as 1 pmol product/min, and is equal to 444 fmol enzyme under these conditions.
# After quenching the reactions with an equal volume, or more, of water containing 1% trifluoroacetic acid, the [^3 H]dihydrotestosterone is isolated by direct injection onto a reverse phase C-18 column (Vydac, 4.6×250 mm, 300 Å, 5 micron), which is run in an isocratic system of 40% water (containing 0.1% trifluoroacetic acid) and 60% methanol at 1 mL/min. When tissue extracts are the source of enzyme, the quenched reactions are clarified by centrifugation at 10,000×g before analysis. Retention times are ~13 min for testosterone and ~20 min for dihydrotestosterone. The effluent containing the [^3 H]dihydrotestosterone peak (6 mL) is collected in a liquid scintillation vial and counted with AQUASOL 2 (14 mL, New England Nuclear) with an efficiency of 0.309. The assay is completely automated using a SUN SPARKSTATION 2 computer interfaced to a ZYMARK robot and ancillary equipment.
# The native human enzyme was from prostate (type 2) or scalp (type 1) tissue, and the recombinant human enzymes were produced by the baculovirus expression system of Andersson, et al. (Chan, H. K., Geissler, W. M., Andersson, S., Sex Hormones and Antihormones in Endocrine Dependent Pathology: Basic and Clinical Aspects, M. Motta and M. Serio, eds., Elsevier Science 1994). […] Enzyme concentrations were determined by titration with finasteride, or [^3 H]finasteride, or from catalytic activity using kcat and Km values.
# Alternatively, fractions may be collected and the samples counted on a scintillation counter. […] The time courses were fit to an integrated first-order rate equation (Equation 1), where A is product concentration, vo is the initial velocity, vs is the infinite-time velocity, and kobs is the first-order rate constant for progression of the enzyme between the two equilibrium states. […] (Ki=koff /kon).
# A=vs t+(vo -vs)(1-e-^k obs^t)/kobs +Ao Equation
# type 1 5α-reductase = assay: Kinetic constants of type 1 5α-reductase; type: biochemical, human
# From the text: (§1) Ethanol is included at 1% final concentration as the vehicle for introduction of inhibitors. […] A unit of enzyme activity was defined as 1 pmol product/min, and is equal to 444 fmol enzyme under these conditions.
# (§2) The molecular weight was taken to be about 30,000 in estimating enzyme purity.
# [5] = substrate: C[C@]12CC[C@H]3[C@@H](CCC4=CC(=O)CC[C@@]43C)[C@@H]1CC[C@@H]2O; assay: purified protein, by the assay type; details: other: baculovirus-expressed type 2 enzyme, pH 7.2, 37° C.
# From the text: as §1, §2
molecule,measurement,setting,value
"CC(C)(C)NC(=O)[C@H]1CC[C@H]2[C@@H]3CC[C@H]4NC(=O)C=C[C@]4(C)[C@H]3CC[C@]12C [Finasteride, 17β-(N-tert-butylcarbamoyl)-3-oxo-4-aza-5α-androst-1-ene-3-one]",inhibition of human prostate (type 2) enzyme,[1],potent inhibitor of the human prostate enzyme
same,inhibition of human prostate (type 2) enzyme,[1]; listed as finasteride,potently inhibited by finasteride
same,rate constant for binding to the human prostate isozyme,[2]; Faller et al. 1993,270000 M⁻¹ s⁻¹
same,binding behavior / reversibility,"[2]; human prostate (type 2) isozyme, result in words",slow-binding inhibitors; also recorded: essentially irreversible enzyme-inhibitor complex
same,Ki,"[2]; printed as Ki <<1 nM, essentially irreversible complex, Faller et al. 1993",< 1 nM
same,inhibition of human skin (type 1) isozyme,"[3]; result in words, listed as finasteride",relatively insensitive to finasteride; also recorded: not a significant inhibitor of human skin (type 1) isozyme at doses employed in the treatment of BPH
same,second-order rate constant for formation of the complex,"[3]; type 1, Tian et al. 1994",4000 M⁻¹ s⁻¹
same,reduction of dihydrotestosterone levels,[4],reduced levels of dihydrotestosterone to values approaching those found in individuals genetically deficient in the prostate isozyme
"CCN(CC)C(=O)[C@H]1CC[C@H]2[C@@H]3CC[C@H]4OC(=O)C=C[C@]4(C)[C@H]3CC[C@]12C [L-682,299, 17β-(N-diethyl)carbamoyl-4-oxa-5α-androst-1-en-3-one]",Ki,type 2 5α-reductase,< 0.1 nM
same,velocity at infinite-time (vs),"type 2 5α-reductase; 20 nM inhibitor, pH 7.2, 37° C.",essentially zero
same,inhibition over time,"type 2 5α-reductase; 20 nM inhibitor, pH 7.2, 37° C., result in words",the inhibition developed slowly with time and resulted in total inhibition of the enzyme
same,kon at 0.02 µM,"type 2 5α-reductase; pH 7.2, read-out: second-order rate constant for binding to the type 2 isozyme",56000 M⁻¹ s⁻¹
C[C@]12CC[C@H]3[C@@H](CCC4=CC(=O)CC[C@@]43C)[C@@H]1CC[C@@H]2O [testosterone],Km,type 1 5α-reductase,7 µM
same,kcat for the type 1 enzyme,type 1 5α-reductase,1.4 s⁻¹
type 2 5α-reductase (Homo sapiens) (protein) MQVQCQQSPVLAGSATLVALGALALYVAKPSGYGKHTESLKPAATRLPARAAWFLQELPSFAVPAGILARQPLSLFGPPGTVLLGLFCLHYFHRTFVYSLLNRGRPYPAILILRGTAFCTGNGVLQGYYLIYCAEYPDGWYTDIRFSLGVFLFILGMGINIHSDYILRQLRKPGEISYRIPQGGLFTYVSGANFLGEIIEWIGYALATWSLPALAFAFFSLCFLGLRAFHHHRFYLKMFEDYPKSRKALIPFIF,Km,[5],0.0246 ± 0.0007 µM
same,kcat,[5],0.075 ± 0.006 s⁻¹
same,kcat/Km,[5],2.99±0.32×10^6 M^-1 s^-1
